The subject of one data set is histone H4 acetylation. Briefly: Histone H4 hyperacetylation Western blot in embryos. The format is in vivo, zebrafish. As to conditions: 24 hpf embryos treated 6 hours; 3 μM PTBA, 25 μM PBA, 200 nM TSA. The procedure: It was next determined whether the HDACi function of PTBA was quantifiable in vivo. 24 hpf embryos were treated with 3 μM PTBA, 25 μM PBA, or 200 nM TSA for 6 hours. Protein extracts were prepared and immunoblotted with an anti-hyperacetylated histone H4 antibody. […] Furthermore, increasing the compound concentration caused a corresponding increase in hyperacetylation (FIG. 21).
SDS-PAGE and Western blotting were performed as described previously with some modifications (Noel, E. S. et al. Organ-specific requirements for Hdac1 in liver and pancreas formation. Dev Biol 322, 237-250, (2008)). Proteins were separated on 18% SDS-PAGE gels. Membranes were incubated at 4° C. overnight with 1:1000 anti-hyperacetylated histone H4 antibody (06-946, Millipore) or 1:1000 anti-α-tubulin antibody (Sigma-Aldrich) in PBT containing 5% nonfat milk.
(In western blotting, separated proteins are transferred to a membrane and probed.)

For data set [1], the system named is HDAC activity in DSI9 mouse erythroleukemia cells. As to conditions: 5 mM; cited from earlier work.
For data set [2], the system named is human HDACs (HeLa cell nuclear extract). Briefly: Fluorescence histone deacetylation assay with HeLa cell nuclear extract. Type of data set: biochemical. The note with it: 5 mM compound, 10 μg HeLa extract. How it is done:
To evaluate this in vitro, the deacetylation of a fluorescent peptide substrate was measured in the presence of human HDACs.
In vitro HDAC activity assays were performed using a fluorescence HDAC assay kit (Active Motif) according to the manufacturer's instructions. For maintaining compound solubility at 5 mM, the final DMSO concentration in all assay wells was increased to 5%. Fluorescence was detected using an M5 Plate Reader ([…])

In a further data set the test system is zebrafish larvae. Briefly: Phenotypic scoring of edema and survival in zebrafish larvae at 72 hpf. The format is in vivo. The note with it: 25 μM PBA, 200 nM TSA. An excerpt:
(§1) PTBA was synthesized as described below. Hydroxyurea and aphidicolin were obtained from Sigma-Aldrich.
Wild type: no visible edema or developmental delay.

For data set [3], the system named is myod1 (somites), fli1a (vasculature), ntla (notochord). Briefly: In situ hybridization for mesodermal markers myod1, fli1a, ntla in 10-somite embryos. Type of data set: in vivo, zebrafish. As to conditions: 25 μM PBA. The procedure: as §1
(§2) In situ hybridization and immunocytochemistry: In situ hybridization was performed as previously described with some modifications. 142 Hybridization temperature was 65° C. Embryos were blocked in 2% blocking reagent (Roche) with 5% sheep serum in MAB (100 mM maleic acid and 150 mM NaCl [pH 7.5]). Whole-mount immunocytochemistry with 1:25 mouse anti-α6F antibody (Developmental Studies Hybridoma Bank) and 1:100 Cy3 secondary antibody (Jackson ImmunoResearch) was performed as described previously. 108 Embryos were embedded in JB-4 for sectioning per the manufacturer's instructions (Polysciences), sectioned at 5 μm, and mounted with Cytoseal 60 (Richard-Allan Scientific).

Data set [4] deals with renal progenitor cells (lhx1a expression). Briefly: In situ hybridization for lhx1a expression in 10-somite embryos (renal progenitor cell expansion). For lhx1a expansion class, 200 nM: key: effective (+); partially effective (+/−); ineffective (−); Analogs that killed all embryos at a given concentration before reaching 10 somites are listed as XX. For lhx1a expansion class, 400 nM: key: effective (+); partially effective (+/−); ineffective (−); Analogs that killed all embryos at a given concentration before reaching 10 somites are listed as XX. For lhx1a expansion class, 800 nM: key: effective (+); partially effective (+/−); ineffective (−); Analogs that killed all embryos at a given concentration before reaching 10 somites are listed as XX. Type of data set: in vivo. The procedure:
as §1, §2
The remaining PTBA analogs were synthesized.
In situ hybridization for lhx1a was performed as described above. […] Compounds were classified as effective, partially-effective or ineffective based on comparison to the effects of PTBA at a given concentration.
Testing of the compounds is on-going, but for those tested, Table 3 provides first pass EC50s based upon colormetric in situ hybridizations for the Lhx1a mRNA expression levels. After the procedure is run, in situ hybridization is done for the lhx1 mRNA expression and the number of embryos that show an expanded kidney field is manually counted to establish the percent of embryos showing expansion. Then the EC50 is determined by plotting the percent expansion in Excel, graphing the results and using the trendline function to determine the 50 percent point. […] For UPHD-00186, the 4 values for EC50 are shown in Table 3 for the corresponding expression in zebrafish embryos employed an artificial intelligence-based image analysis method termed cognition network technology (CNT) for n=4.

Data set [5] has as its system CD1 mice, folic acid-induced injury. Briefly: Folic acid-induced AKI. Type of data set: in vivo, mouse. The note with it: daily IP 50 mg/ml in 30% PEG300 from 24 hrs after folic acid; after 15 days. How it is done: FIG. 41 are photomicrographs showing the results of an AKI model using folic acid-induced injury. Folic acid is administered to CD1 mice (n=6/group) intraperitoneally (IP) at 250 mg/ml in 0.3M NaHCO3. Compound UPHD-00022 was injected daily IP at […] in 30% PEG300 vehicle starting 24 hrs after folic acid treatment. Kidney tissue was stained using Trichrome and Sirus Red stained after 15 days. Blue in trichrome and the red in sirus red indicates fibrotic (scar) tissue.

For data set [6], the system named is mouse models of unilateral ureteral obstruction (UUO). Briefly: Unilateral ureteral obstruction (UUO). The format is in vivo. As to conditions: IP days 0 to 6, kidneys harvested at day 7. An excerpt:
The model of unilateral ureteral obstruction generates progressive renal fibrosis. Surgically created UUO can be experimentally manipulated with respect to timing, severity, and duration, while reversal of the obstruction permits the study of recovery.
FIG. 47 represents the results of the testing of compounds UPHD-00022, UPHD-00025 (PTBA), UPHD-00029, UPHD-00036, and UPHD-00186, for their efficacy in mouse models of unilateral ureteral obstruction (UUO) as follows: in the UUO models, one ureter was ligated for 7 days and compounds were delivered via IP for days 0 to 6. At day 7 kidneys were harvested for Sirius red staining. […] Therefore, in the models tested, the only compound proven to be effective in all models and with significant delayed onset of treatment is UPHD-186.

Setting [7] is: lhx1a in situ hybridization, includes repeats* and recounts.

Consider `O=C(O)CCCc1ccccc1` [PBA, 4-phenylbutanoic acid], for which the “histone H4 hyperacetylation” value with histone H4 acetylation is “hyperacetylation was observed”. Besides, the “HDAC activity, % of the control value” in data set [1] is listed as 19%; in data set [2], 30%. In addition, the “death (lethality) by 72 hpf” value in the data set on zebrafish larvae (n=90) is on record as 8%. Further, the “larvae with edemic phenotype / pericardial edema at 72 hpf” value in the data set with zebrafish larvae (treated from 2 hpf, 3 μM PTBA) is 23%. The “embryos with decreased myod1 expression” value in data set [3] (3 μM PTBA (slightly decreased), 200 nM TSA) stood at 57%. Further, the “embryos with increased ntla expression” value in data set [3] (3 μM PTBA) is given as 87%. Further, in data set [3] (200 nM TSA), the “embryos with decreased fli1a expression” value stood at 78%. Also, the “concentration producing lhx1a expansion consistent with 3 μM PTBA” value in data set [4] (10-somite embryos) was determined as 25 µM.
Consider `COC(=O)CCCSc1ccc(OC)cc1` [UPHD-00022, methyl 4-[(4-methoxyphenyl)sulfanyl]butanoate], for which the “renal fibrosis (Trichrome and Sirus Red)” value in data set [5] was “a reduction in fibrosis is seen”. Further, the “fibrosis (Sirius red) and expression of fibrosis markers in UUO kidney” value in data set [6] is “reduce both fibrosis and expression of fibrosis markers”. Also, the “lhx1a expansion class, 200 nM” value in data set [4] (200 nM from 2 hpf) is “−”. For the same compound, the “lhx1a expansion class, 400 nM” value in data set [4] (400 nM from 2 hpf) is listed as “+/−”. Besides, in data set [4] (800 nM from 2 hpf), the “lhx1a expansion class, 800 nM” value was “+”. In data set [4] (Danio rerio, 400 nM, read-out: embryos with expanded lhx1a expression (% expansion)), the responders at 0.4 µM was 29%. Moreover, the responders at 0.8 µM in data set [4] (Danio rerio, 800 nM, read-out: embryos with expanded lhx1a expression (% expansion)) turned out to be 57%. For the same compound, in data set [4] (setting [7]), the “Expansion of Cells, 800 nM” value was determined as 57%; the “Expansion of Cells, 1.5 μM” value was 91%; the “Expansion of Cells, 3 μM” value is on record as 100%.

The values above are taken from patent US10233201B2, “Class of HDAC inhibitors expands the renal progenitor cells population and improves the rate of recovery from acute kidney injury” (University of Pittsburgh—Of the Commonwealth System of …, priority 2012, dated 2019).
